Assay: Maximum plasma concentration of octreotide in rats after endoscopic administration
Details: same administered octreotide level (5 mg)
Description: A control test was conducted on seven control rats. A 5 mg solution of octreotide was endoscopically administered to the control rats, and the resulting maximum plasma concentrations of octreotide in the control rats were measured.
Octreotide was administered to three test rats using techniques that were in accordance with embodiments of the present invention. A drug layer of 5 mg of octreotide was dried onto the outer layer of each of three capsules, and the capsules were endoscopically placed in the small intestine of the three test rats. The resulting maximum plasma concentrations of octreotide in the test rats were measured.

Compound: C[C@@H](O)[C@@H]1NC(=O)[C@H](CCCCN)NC(=O)[C@@H](Cc2c[nH]c3ccccc23)NC(=O)[C@H](Cc2ccccc2)NC(=O)[C@@H](NC(=O)[C@H](N)Cc2ccccc2)CSSC[C@@H](C(=O)N[C@H](CO)[C@@H](C)O)NC1=O [octreotide]
- resultant blood concentration of octreotide, test group (capsule surface) versus control group (solution): significantly higher

— patent publication US8287902B2, “Enhanced-diffusion capsule” (Rainbow Medical Ltd., priority 2008, dated 2012)
